Measured values taken from patent publication US20240294541A1, “COMPOUNDS CONSTITUTING C20-MODIFIED SALINOMYCIN DERIVATIVES, A METHOD FOR OBTAINING THE SAME, A COMPOSITION CONTAINING THE SAME AND A USE OF SAID COMPOUNDS” (FILECLO SPOLKA Z OGRANICZONA ODPOWIEDZIALNOSCIA, priority 2021, published 2024).
pIC50: −log10 of the molar value. Where a name gives a salt, the structure may show the parent alone. Read-outs that look alike come from different tables or passages of the source.

Legend:
Type in all cases: cell-based
[1] = tested on: A2780 (human ovarian cancer); experiment: In vitro cytotoxicity, SRB assay, A2780; settings: Homo sapiens, A2780; 72 h with compound, SRB; n/a = non-active compound; read-out: A2780 IC50
[2] = tested on: KG-1 (human acute myeloid leukaemia); experiment: In vitro cytotoxicity, MTT assay, KG-1; settings: Homo sapiens; 72 h with compound, MTT; n/a = non-active compound
[3] = tested on: SNU-16 (human gastric cancer); experiment: cells; settings: Homo sapiens, SNU-16; 72 h with compound, MTT; n/a = non-active compound; read-out: SNU-16 IC50
[4] = tested on: A2780Cis (cisplatin-resistant human ovarian cancer); experiment: In vitro cytotoxicity, SRB assay, A2780Cis; settings: for IC50: Homo sapiens, A2780cis
[5] = tested on: PFSK-1 (malignant primitive neuroectodermal tumour); experiment: In vitro cytotoxicity, SRB assay, PFSK-1; settings: Homo sapiens, PFSK-1; 72 h with compound, SRB; n/a = non-active compound; read-out: PFSK-1 IC50
[6] = tested on: PLC/PRF/5 (human liver cancer); experiment: cells; settings: Homo sapiens, PLC-PRF-5; 72 h with compound, SRB; n/a = non-active compound; read-out: PLC/PRF/5 IC50
[7] = tested on: NCI-H23 (human lung cancer); experiment: In vitro cytotoxicity, SRB assay, NCI-H23; settings: Homo sapiens, NCI-H23; 72 h with compound, SRB; n/a = non-active compound; read-out: NCI-H23 IC50
[8] = tested on: BALB/3T3 (normal mouse fibroblasts); experiment: In vitro cytotoxicity, SRB assay, normal BALB/3T3 fibroblasts; settings: Table 5; BALB/3T3 normal mouse fibroblasts; read-out: IC50 (nM) BALB3T3 normal cells
[9] = tested on: MV-4-11 (human biphenotypic leukaemia); experiment: In vitro cytotoxicity, MTT assay, MV-4-11; settings: for IC50: Homo sapiens, MV4-11, read-out: IC50 (nM) MV4-11
[10] = 72 h, read-out: A2780Cis IC50 (nM)

| SMILES | pIC50 [1] | pIC50 [2] | pIC50 [3] | A2780Cis RI [4] | IC50 [4, 10] | pIC50 [5] | pIC50 [6] | pIC50 [7] | IC50 [8] | SI MV4-11 [9] | IC50 [9] | SI A2780Cis [4] | IC50 ([4]; read-out: IC50 (nM) A2780Cis) |
| --- | --- | --- | --- | --- | --- | --- | --- | --- | --- | --- | --- | --- | --- |
| CCOC(=O)C(=O)N[C@@H]1C=C[C@]2(O[C@H]([C@@H](CC)C(=O)[C@@H](C)[C@@H](O)[C@H](C)[C@@H]3O[C@@H]([C@@H](CC)C(=O)O)CC[C@@H]3C)[C@@H](C)C[C@H]2C)O[C@@]12CC[C@@](C)([C@H]1CC[C@](O)(CC)[C@H](C)O1)O2 [FLC-00373-1, C20-aminosalinomycin oxalate derivative] | 5.17 | 5.04 |  |  |  |  |  |  |  |  |  |  |  |
| CC[C@@H](C(=O)[C@@H](C)[C@@H](O)[C@H](C)[C@@H]1O[C@@H]([C@@H](CC)C(=O)O)CC[C@@H]1C)[C@H]1O[C@]2(C=C[C@@H](NC(=O)NS(=O)(=O)c3ccccc3)[C@]3(CC[C@@](C)([C@H]4CC[C@](O)(CC)[C@H](C)O4)O3)O2)[C@H](C)C[C@@H]1C [FLC-00365-1] | 5.46 | 5.10 | 5.23 | 0.9 | 3020 nM | 5.21 |  |  |  |  |  |  |  |
| CC[C@@H](C(=O)[C@@H](C)[C@@H](O)[C@H](C)[C@@H]1O[C@@H]([C@@H](CC)C(=O)O)CC[C@@H]1C)[C@H]1O[C@]2(C=C[C@@H](NC(=O)NS(=O)(=O)c3ccc(C)cc3)[C@]3(CC[C@@](C)([C@H]4CC[C@](O)(CC)[C@H](C)O4)O3)O2)[C@H](C)C[C@@H]1C [FLC-00364-1] | 5.58 | 5.43 | 5.27 | 0.4 | 1130 nM | 5.25 | 5.35 | 5.32 |  |  |  |  |  |
| CC[C@@H](C(=O)[C@@H](C)[C@@H](O)[C@H](C)[C@@H]1O[C@@H]([C@@H](CC)C(=O)O)CC[C@@H]1C)[C@H]1O[C@]2(C=C[C@@H](NS(=O)(=O)c3ccc(C)cc3)[C@]3(CC[C@@](C)([C@H]4CC[C@](O)(CC)[C@H](C)O4)O3)O2)[C@H](C)C[C@@H]1C [FLC-00502-1•Na] |  |  |  |  |  |  |  |  | 92.7 nM | 28.1 | 3.3 nM | 52.7 | 1.76 nM |
| CC[C@@H](C(=O)[C@@H](C)[C@@H](O)[C@H](C)[C@@H]1O[C@@H]([C@@H](CC)C(=O)O)CC[C@@H]1C)[C@H]1O[C@]2(C=C[C@@H](NC(=O)OCCOC(C)(C)C)[C@]3(CC[C@@](C)([C@H]4CC[C@](O)(CC)[C@H](C)O4)O3)O2)[C@H](C)C[C@@H]1C [FLC-00480-1•Na] |  |  |  |  |  |  |  |  | 185 nM | 9.7 | 19.1 nM | 43.6 | 4.25 nM |
| CC[C@@H](C(=O)[C@@H](C)[C@@H](O)[C@H](C)[C@@H]1O[C@@H]([C@@H](CC)C(=O)O)CC[C@@H]1C)[C@H]1O[C@]2(C=C[C@@H](NC(=O)OCCCN(C)C)[C@]3(CC[C@@](C)([C@H]4CC[C@](O)(CC)[C@H](C)O4)O3)O2)[C@H](C)C[C@@H]1C [FLC-00498-1•Na] |  |  |  |  |  |  |  |  | 5010 nM | 3.2 | 1560 nM | 6.6 | 758 nM |
| CC[C@@H](C(=O)[C@@H](C)[C@@H](O)[C@H](C)[C@@H]1O[C@@H]([C@@H](CC)C(=O)O)CC[C@@H]1C)[C@H]1O[C@]2(C=C[C@@H](NC(=O)N3CCS(=O)(=O)CC3)[C@]3(CC[C@@](C)([C@H]4CC[C@](O)(CC)[C@H](C)O4)O3)O2)[C@H](C)C[C@@H]1C [FLC-00560-1•Na] |  |  |  |  |  |  |  |  | 5330 nM | 15.7 | 339 nM | 18.8 | 283 nM |
| CC[C@@H](C(=O)[C@@H](C)[C@@H](O)[C@H](C)[C@@H]1O[C@@H]([C@@H](CC)C(=O)O)CC[C@@H]1C)[C@H]1O[C@]2(C=C[C@@H](NC(=O)OC3CCN(C)CC3)[C@]3(CC[C@@](C)([C@H]4CC[C@](O)(CC)[C@H](C)O4)O3)O2)[C@H](C)C[C@@H]1C [FLC-00559-1•Na] |  |  |  |  |  |  |  |  | 5340 nM | 17.8 | 300 nM | 16.2 | 330 nM |
| CC[C@@H](C(=O)[C@@H](C)[C@@H](O)[C@H](C)[C@@H]1O[C@@H]([C@@H](CC)C(=O)O)CC[C@@H]1C)[C@H]1O[C@]2(C=C[C@@H](NC(=O)N3CCN(C)CC3)[C@]3(CC[C@@](C)([C@H]4CC[C@](O)(CC)[C@H](C)O4)O3)O2)[C@H](C)C[C@@H]1C [FLC-00515-1•Na] |  |  |  |  |  |  |  |  | 3790 nM | 9.5 | 400 nM | 10.6 | 357 nM |
| CC[C@@H](C(=O)[C@@H](C)[C@@H](O)[C@H](C)[C@@H]1O[C@@H]([C@@H](CC)C(=O)O)CC[C@@H]1C)[C@H]1O[C@]2(C=C[C@@H](NC(=O)C(Cl)Cl)[C@]3(CC[C@@](C)([C@H]4CC[C@](O)(CC)[C@H](C)O4)O3)O2)[C@H](C)C[C@@H]1C [FLC-00493-1•Na] |  |  |  |  |  |  |  |  | 57.7 nM | 10.6 | 5.43 nM | 26.9 | 2.14 nM |
| CC[C@@H](C(=O)[C@@H](C)[C@@H](O)[C@H](C)[C@@H]1O[C@@H]([C@@H](CC)C(=O)O)CC[C@@H]1C)[C@H]1O[C@]2(C=C[C@@H](NS(=O)(=O)c3ccc(Br)cc3)[C@]3(CC[C@@](C)([C@H]4CC[C@](O)(CC)[C@H](C)O4)O3)O2)[C@H](C)C[C@@H]1C [FLC-00504-1•Na] |  |  |  |  |  |  |  |  | 91.3 nM | 20.7 | 4.4 nM | 30.5 | 2.99 nM |
| CC[C@@H](C(=O)[C@@H](C)[C@@H](O)[C@H](C)[C@@H]1O[C@@H]([C@@H](CC)C(=O)O)CC[C@@H]1C)[C@H]1O[C@]2(C=C[C@@H](NC(=O)OCc3cc(Cl)cc(Cl)c3)[C@]3(CC[C@@](C)([C@H]4CC[C@](O)(CC)[C@H](C)O4)O3)O2)[C@H](C)C[C@@H]1C [FLC-00485-1•Na] |  |  |  |  |  |  |  |  | 106 nM | 5.3 | 20 nM | 23.0 | 4.62 nM |
| CC[C@@H](C(=O)[C@@H](C)[C@@H](O)[C@H](C)[C@@H]1O[C@@H]([C@@H](CC)C(=O)O)CC[C@@H]1C)[C@H]1O[C@]2(C=C[C@@H](NC(=O)OC(C)(C)C#N)[C@]3(CC[C@@](C)([C@H]4CC[C@](O)(CC)[C@H](C)O4)O3)O2)[C@H](C)C[C@@H]1C [FLC-00551-1•Na] |  |  |  |  |  |  |  |  | 792 nM | 9.8 | 81 nM | 12.5 | 63.6 nM |
| CC[C@@H](C(=O)[C@@H](C)[C@@H](O)[C@H](C)[C@@H]1O[C@@H]([C@@H](CC)C(=O)O)CC[C@@H]1C)[C@H]1O[C@]2(C=C[C@@H](NC(=O)OCCC#N)[C@]3(CC[C@@](C)([C@H]4CC[C@](O)(CC)[C@H](C)O4)O3)O2)[C@H](C)C[C@@H]1C [FLC-00509-1•Na] |  |  |  |  |  |  |  |  | 246 nM | 10.9 | 22.6 nM | 14.7 | 16.7 nM |
| CC[C@@H](C(=O)[C@@H](C)[C@@H](O)[C@H](C)[C@@H]1O[C@@H]([C@@H](CC)C(=O)O)CC[C@@H]1C)[C@H]1O[C@]2(C=C[C@@H](NC(=O)c3ccncc3)[C@]3(CC[C@@](C)([C@H]4CC[C@](O)(CC)[C@H](C)O4)O3)O2)[C@H](C)C[C@@H]1C [FLC-00487-1•Na] |  |  |  |  |  |  |  |  | 3650 nM | 27.5 | 133 nM | 79.6 | 45.9 nM |
| CC[C@@H](C(=O)[C@@H](C)[C@@H](O)[C@H](C)[C@@H]1O[C@@H]([C@@H](CC)C(=O)O)CC[C@@H]1C)[C@H]1O[C@]2(C=C[C@@H](NC(=O)NCc3cccnc3)[C@]3(CC[C@@](C)([C@H]4CC[C@](O)(CC)[C@H](C)O4)O3)O2)[C@H](C)C[C@@H]1C [FLC-00566-1•Na] |  |  |  |  |  |  |  |  | 5820 nM | 22.8 | 255 nM | 47.6 | 122 nM |
| CC[C@@H](C(=O)[C@@H](C)[C@@H](O)[C@H](C)[C@@H]1O[C@@H]([C@@H](CC)C(=O)O)CC[C@@H]1C)[C@H]1O[C@]2(C=C[C@@H](NC(=O)NCCCN3CCS(=O)(=O)CC3)[C@]3(CC[C@@](C)([C@H]4CC[C@](O)(CC)[C@H](C)O4)O3)O2)[C@H](C)C[C@@H]1C [FLC-00546-1•Na] |  |  |  |  |  |  |  |  | 2180 nM | 8.5 | 258 nM | 19.5 | 112 nM |
